# Assay results from ChEMBL document CHEMBL1128558, “Effect of bridge region variation on antifolate and antitumor activity of classical 5-substituted 2,4-diaminofuro[2,3-d]pyrimidines” (J Med Chem, 1995).
# How the values were obtained:
# [1] = Ratio of Vmax to Km
# [2] = tested on: FaDu; test: Protection by 50 uM Hx (Hypoxanthine) against the growth inhibition of FaDu cells induced by the compound; type: functional, Homo sapiens; set-up: scale not given: the % may be the effect or the level left
# [3] = tested on: CCRF-CEM; test: The compound was tested for Growth inhibition of Methotrexate-resistant human T-lymphoblastic leukemia cell line CCRF-CEM(sub line R30dm); type: functional, cell-based
# [4] = tested on: FaDu; test: Protection by 10 uM LV(leucovorin) against the growth inhibition of FaDu cells induced by the compound; type: functional, Homo sapiens; set-up: scale not given: the % may be the effect or the level left
# [5] = tested on: FaDu; test: Protection by combination of 50 uM Hx (Hypoxanthine) + 40 uM TdR(thymidine) against the growth inhibition of FaDu cells induced by the compound; type: functional, Homo sapiens; set-up: scale not given: the % may be the effect or the level left
# [6] = biological target: T1, Thymidylate synthase (Lactobacillus casei, UniProt P00469); test: Inhibitory concentration against Lactobacillus casei TS (Thymidylate synthase).; set-up: species or system Lacticaseibacillus casei
# T1 sequence (P00469 whole entry): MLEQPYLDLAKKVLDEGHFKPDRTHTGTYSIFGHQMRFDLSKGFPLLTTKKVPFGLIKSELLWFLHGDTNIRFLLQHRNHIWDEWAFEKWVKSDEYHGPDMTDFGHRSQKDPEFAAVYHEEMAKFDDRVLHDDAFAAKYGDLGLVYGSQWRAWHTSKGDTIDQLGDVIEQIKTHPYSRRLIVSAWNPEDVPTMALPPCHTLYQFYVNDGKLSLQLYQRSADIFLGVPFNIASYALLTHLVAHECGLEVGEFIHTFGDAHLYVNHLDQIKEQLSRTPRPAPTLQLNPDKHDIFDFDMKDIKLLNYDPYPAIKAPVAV
# [7] = tested on: FaDu; test: The compound was tested for growth inhibition against FaDu cells; type: functional, Homo sapiens; set-up: scale not given: the % may be the effect or the level left
# [8] = tested on: A253 cell line; test: The compound was tested for Growth inhibition of the human squamous cell carcinoma A253 cells; type: functional, cell-based
# [9] = tested on: FaDu; test: Protection by 40 uM TdR(thymidine) against the growth inhibition of FaDu cells induced by the compound; type: functional, Homo sapiens; set-up: scale not given: the % may be the effect or the level left
# [10] = tested on: CCRF-CEM; test: Compound was tested for Growth inhibition of the Human T-lymphoblastic Leukemia cell line CCRF-CEM; type: functional, cell-based
# [11] = tested on: FaDu; test: The compound was tested for Growth inhibition of the human squamous cell carcinoma FaDu cells; type: functional, cell-based
# [12] = biological target: Thymidylate synthase (Homo sapiens, UniProt P04818); test: Inhibitory concentration against recombinant human TS (Thymidylate synthase).
# [13] = biological target: Dihydrofolate reductase (Lactobacillus casei, UniProt P00381)
# Description: inhibitory concentration against Lactobacillus casei DHFR(Dihydro folate reductase).
# [14] = biological target: T2, Dihydrofolate reductase (Homo sapiens, UniProt P00374); test: Inhibitory concentration against recombinant human DHFR(Dihydro folate reductase).
# T2 sequence (P00374 whole entry): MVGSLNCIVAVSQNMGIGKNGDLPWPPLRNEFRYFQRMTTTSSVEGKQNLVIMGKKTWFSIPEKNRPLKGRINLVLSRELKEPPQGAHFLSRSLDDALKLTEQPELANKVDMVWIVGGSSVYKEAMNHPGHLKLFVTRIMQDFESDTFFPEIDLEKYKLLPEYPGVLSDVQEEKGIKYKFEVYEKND
# [15] = tested on: CCRF-CEM; test: he compound was tested for Growth inhibition of the Human T-lymphoblastic Leukemia cell line CCRF-CEM; type: functional, cell-based
# [16] = substrate: Nc1nc(N)c2c(CCc3ccc(C(=O)N[C@@H](CCC(=O)O)C(=O)O)cc3)coc2n1; test: (§1) Vmax value for substrate activity against CCRF-CEM human leukemia cell Folyl-polyglutamate synthase; type: cell-based
# [17] = substrate: Nc1nc(N)c2c(CNCc3ccc(C(=O)N[C@@H](CCC(=O)O)C(=O)O)cc3)coc2n1; test: as §1; type: cell-based
# [18] = substrate: Nc1nc(N)c2nc(CNc3ccc(C(=O)N[C@@H](CCC(=O)O)C(=O)O)cc3)cnc2n1; test: as §1; type: cell-based
# [19] = substrate: Nc1nc(N)c2c(CCc3ccc(C(=O)N[C@@H](CCC(=O)O)C(=O)O)cc3)coc2n1; test: (§2) Substrate activity against CCRF-CEM human leukemia cell Folyl-polyglutamate synthase
# [20] = substrate: Nc1nc(N)c2nc(CNc3ccc(C(=O)N[C@@H](CCC(=O)O)C(=O)O)cc3)cnc2n1; test: as §2
# Chain of Dihydrofolate reductase (Lactobacillus casei, UniProt P00381) (P00381 whole entry): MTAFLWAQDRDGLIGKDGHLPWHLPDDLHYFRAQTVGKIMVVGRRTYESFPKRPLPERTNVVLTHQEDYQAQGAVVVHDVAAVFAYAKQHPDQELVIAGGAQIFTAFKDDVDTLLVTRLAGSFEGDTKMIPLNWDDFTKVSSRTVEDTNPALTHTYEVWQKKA
# Chain of Thymidylate synthase (Homo sapiens, UniProt P04818) (P04818 whole entry): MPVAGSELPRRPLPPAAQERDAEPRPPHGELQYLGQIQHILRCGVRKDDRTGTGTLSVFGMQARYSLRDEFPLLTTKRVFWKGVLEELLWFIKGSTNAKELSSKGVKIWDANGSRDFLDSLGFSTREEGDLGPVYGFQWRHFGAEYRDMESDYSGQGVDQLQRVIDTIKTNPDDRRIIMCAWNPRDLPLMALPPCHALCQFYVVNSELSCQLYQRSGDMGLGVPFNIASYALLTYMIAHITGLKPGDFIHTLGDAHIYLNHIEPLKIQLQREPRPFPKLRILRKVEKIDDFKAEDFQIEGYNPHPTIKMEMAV
Molecule,Ratio [1],Control [2],Control [4],IC50 [6],Control [7],EC50 [8],Control [9],EC50 [11],IC50 [13],IC50 [14],also measured
Nc1nc(N)c2c(CCc3ccc(C(=O)N[C@@H](CCC(=O)O)C(=O)O)cc3)coc2n1,0.07,4%,105%,200000 nM,7%,540 nM,14%,180 nM,–,–,EC50 [3]: 4250 nM; Control [5]: 107%; EC50 [10]: 290 nM
Nc1nc(N)c2c(CNc3ccc(C(=O)N[C@@H](CCC(=O)O)C(=O)O)cc3)coc2n1,–,–,–,> 200000 nM,–,–,–,–,560 nM,450 nM,IC50 [12]: > 200000 nM
Nc1nc(N)c2c(CNCc3ccc(C(=O)N[C@@H](CCC(=O)O)C(=O)O)cc3)coc2n1,–,–,–,> 200000 nM,–,–,–,–,> 200000 nM,> 200000 nM,EC50 [15]: 48000 nM
Nc1nc(N)c2nc(CNc3ccc(C(=O)N[C@@H](CCC(=O)O)C(=O)O)cc3)cnc2n1,0.21,–,–,–,–,–,–,–,–,–,–
CN(Cc1cnc2nc(N)nc(N)c2n1)c1ccc(C(=O)N[C@@H](CCC(=O)O)C(=O)O)cc1 [METHOTREXATE],–,6%,96%,–,2%,13 nM,8%,17 nM,–,–,–
"Folylpolyglutamate synthase, mitochondrial (Homo sapiens), Q05932 (protein) MSRARSHLRAALFLAAASARGITTQVAARRGLSAWPVPQEPSMEYQDAVRMLNTLQTNAGYLEQVKRQRGDPQTQLEAMELYLARSGLQVEDLDRLNIIHVTGTKGKGSTCAFTECILRSYGLKTGFFSSPHLVQVRERIRINGQPISPELFTKYFWRLYHRLEETKDGSCVSMPPYFRFLTLMAFHVFLQEKVDLAVVEVGIGGAYDCTNIIRKPVVCGVSSLGIDHTSLLGDTVEKIAWQKGGIFKQGVPAFTVLQPEGPLAVLRDRAQQISCPLYLCPMLEALEEGGPPLTLGLEGEHQRSNAALALQLAHCWLQRQDRHGAGEPKASRPGLLWQLPLAPVFQPTSHMRLGLRNTEWPGRTQVLRRGPLTWYLDGAHTASSAQACVRWFRQALQGRERPSGGPEVRVLLFNATGDRDPAALLKLLQPCQFDYAVFCPNLTEVSSTGNADQQNFTVTLDQVLLRCLEHQQHWNHLDEEQASPDLWSAPSPEPGGSASLLLAPHPPHTCSASSLVFSCISHALQWISQGRDPIFQPPSPPKGLLTHPVAHSGASILREAAAIHVLVTGSLHLVGGVLKLLEPALSQ",–,–,–,–,–,–,–,–,–,–,Vmax [16]: 0.65; Vmax [17]: 0.6; Vmax [18]: 1; Km [19]: 8.5 µM; Km [20]: 4.8 µM
